# According to patent US20200009118A1, “COMPOSITIONS AND METHODS FOR THE TREATMENTOF NEURODEGENERATIVE AND OTHER DISEASES” (Glialogix, Inc., priority 2017, published 2020):
# Columns and labels:
# [1] = for Cmax GB: pH 2; for AUC / Cmax IB: pH 5.5
# [2] = tested on: SOD1^G93A transgenic mice; conditions: cited from earlier work
# [3] = tested on: xCT mRNA in primary rat astrocyte cells; test: qPCR of xCT mRNA in primary astrocytes; assay type: cell-based; conditions: 100 ng/ml, astrocyte media, control gene gamma-actin
# Description: (§1) Primary rat astrocyte cells were purchased from All Cells (Catalog #RCTX-001F, Alameda, Calif.), thawed and resuspended in 13.4 ml of DMEM media (Catalog #12-614F, Lonza, Allendale, N.J.) supplemented with 15% v/v FBS (Catalog #F4135, Sigma-Aldrich, St. Louis, Mo.) and 560 μL aliquoted into wells in a 24-well plate. Cells were incubated at 37° C. with 5% CO2. For each qPCR experiment, 2-3 wells (approximately 42,000-63,000 cells) were transferred to a new 24-well plate with fresh astrocyte media, composed of 50% v/v DMEM, 50% v/v Neurobasal media (Catalog #12348-017), Life Technologies, supplemented with 2 mM glutamine, 300 μM L-cystine. Following 24 hours, cells were then mixed and aliquoted into 24 well plates at approximately 10,000 cells per well in the same media. Compounds to be tested were then added at the indicated concentrations and cells harvested 18 hours later by washing once with PBS (Catalog #P5493, Sigma-Aldrich) and then treated with 300 μl of StemProAccutase cell dissociation reagent (Catalog #A11105-01, Life Technologies) and incubated for 5-10 minutes at 37° C. PBS (300 μl) was added and the cells spun down in a microfuge for 5 minutes at 2,000×g at 4° C. The supernatant was removed and mRNA was isolated from the cells by using the Purelink microscale RNA extraction kit (Catalog #12183016, Life Technologies) according to the manufacturer's instructions. The mRNA resuspended in 12-22 μl of RNase-free water. cDNA was prepared by use of the Superscript VILO kit (Catalog #11755050, Life Technologies) according to the manufacturer's instructions. The cDNA was eluted in a final volume of 20 μl RNase-free water in and 4 μl was used for each qPCR reaction. qPCR reactions and primers were as described in Example 11.
# (§2) To determine if tunicamycin increased levels of xCT mRNA, Tunicamycin (5 ng/ml) was added to the primary astrocyte cell cultures in astrocyte media. xCT gene expression was determined by qPCR after 18 hours of exposure to tunicamycin.
# (§3) The Cycle threshold is abbreviated Ct. The change in Ct equals [Ct (minus test agent)−Ct (plus test agent)]. Changes in Ct of the test genes xCT and Lcn-2 are normalized by subtracting the change in Ct of the control gene, either gamma-actin or Hypoxanthine-guanine phosphoribosyl transferase (HPRT). Ct values are converted to absolute values by the formula: absolute value=2^^(normalized change in Ct). Absolute values are converted to percent change by multiplying the absolute value by 100.
# (§4) Using the methods described in Example 11, various agents known to cause activation of neuroinflammatory cells and/or cause or reflect stress and damage to neurons, axons and/or oligodendrocytes were tested for causing an increase in xCT levels in primary rat astrocytes.
# [4] = molecular target: T1, xCT (Rattus norvegicus, UniProt A0A8I6AB70); test: Extracellular glutamate from primary astrocytes (Amplex Red Glutamic Acid/Glutamate Oxidase Assay); assay type: cell-based; conditions: TNF-alpha 100 μg/ml 18 hours in astrocyte media, no sulfasalazine
# T1 construct: host or cells: primary rat astrocytes
# T1 sequence (A0A8I6AB70 1-502): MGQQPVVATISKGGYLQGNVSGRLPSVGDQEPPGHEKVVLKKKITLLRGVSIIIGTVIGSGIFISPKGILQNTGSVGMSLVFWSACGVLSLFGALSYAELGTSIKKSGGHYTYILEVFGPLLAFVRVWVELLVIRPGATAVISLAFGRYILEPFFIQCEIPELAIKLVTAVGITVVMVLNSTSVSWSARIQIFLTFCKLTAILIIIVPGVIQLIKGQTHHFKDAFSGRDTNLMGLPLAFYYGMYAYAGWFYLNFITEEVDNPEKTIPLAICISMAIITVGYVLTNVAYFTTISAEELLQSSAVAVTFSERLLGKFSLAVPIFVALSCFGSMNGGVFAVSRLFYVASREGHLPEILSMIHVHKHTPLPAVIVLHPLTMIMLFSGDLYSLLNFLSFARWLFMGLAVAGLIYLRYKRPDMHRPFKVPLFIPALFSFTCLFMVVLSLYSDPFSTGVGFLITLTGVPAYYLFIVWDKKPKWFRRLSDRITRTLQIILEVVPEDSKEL
# T1 sequence (Q794F9 whole entry partner): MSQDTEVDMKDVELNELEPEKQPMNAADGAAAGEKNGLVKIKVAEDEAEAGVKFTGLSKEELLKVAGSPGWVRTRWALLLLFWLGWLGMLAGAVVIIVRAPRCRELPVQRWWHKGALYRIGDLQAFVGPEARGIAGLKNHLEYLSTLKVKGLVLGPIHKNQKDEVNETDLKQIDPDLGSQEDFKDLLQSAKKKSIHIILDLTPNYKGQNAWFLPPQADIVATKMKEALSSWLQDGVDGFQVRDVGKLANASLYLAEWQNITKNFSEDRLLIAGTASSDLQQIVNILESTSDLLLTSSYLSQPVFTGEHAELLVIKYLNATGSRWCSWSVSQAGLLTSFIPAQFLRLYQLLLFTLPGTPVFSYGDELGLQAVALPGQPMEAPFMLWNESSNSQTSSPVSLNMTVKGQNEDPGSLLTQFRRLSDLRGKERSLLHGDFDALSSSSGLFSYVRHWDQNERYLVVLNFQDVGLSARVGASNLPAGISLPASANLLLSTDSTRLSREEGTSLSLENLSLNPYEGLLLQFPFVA
# From the text: xCT is a cystine-glutamate exchange protein that imports extracellular cystine in exchange for exporting intracellular glutamate. xCT activity can be measured by measuring the level of the extracellular glutamate that is exported. For detection of extracellular glutamate, the Amplex Red Glutamic Acid/Glutamate Oxidase Assay Kit from Life Technologies (Catalog #A-1222, Grand Island, N.Y.) was used following the manufacturer's instructions. Fluorescence from the Amplex Red fluorophore is directly proportional to glutamate concentration and was detected on an Enspire plate reader (Perkin-Elmer (Model #2300, Santa Clara, Calif.) with excitation wavelength at 530 nm and detection wavelength at 590 nm according to the manufacturer's instructions.
# Astrocytes were grown in 24-well microtiter plates at a density of approximately 10,000 cells/well in a total volume of 400 μl of astrocyte media. Cells were incubated 18 hours in either astrocyte media plus 100 μM cystine (Catalog #C8755; Sigma-Aldrich) or astrocyte media plus 100 μM cystine plus TNF-alpha (100 μg/ml). After 18 hours, the media was removed and the adherent astrocytes washed twice with PBS and then 400 μL of minimal media was added to the cells. The minimal media was EBSS (catalog #E3024, Sigma-Aldrich) supplemented with 100 μM cystine and 10 mM D-glucose (catalog #G8769, Sigma-Aldrich).
# The top 25 μL of the supernatant was then transferred to a 0.5 ml microfuge tube and the aliquots frozen at −80.
# For the glutamate assay, samples of the media were thawed, pipetted up and down to ensure mixing and 20 μl added to 80 μl of the Amplex Red assay mix in a 96-well microtiter plate (catalog #M4436, Greiner, Frickenhausen, Germany). The reactions were covered in aluminum foil and allowed to proceed for 30 minutes at 37° C. and then fluorescence measured as described above.
# Concurrently with analysis of the astrocyte samples, a standard curve of the Amplex Red glutamate assay in the minimal media was prepared following the manufacturer's instructions and using known concentrations of glutamate: 0, 0.5, 1, 2 and 4 μM. Table 19 gives the numerical results of the standard curve assay and the results are depicted graphically in FIG. 17.
# [5] = tested on: Lcn-2 mRNA in primary rat astrocyte cells; test: qPCR of Lcn-2 mRNA in primary astrocytes; assay type: cell-based; conditions: 100 ng/ml, astrocyte media, control gene gamma-actin
# Description: as §1, §2, §3, §4
# [6] = tested on: IL1-beta mRNA in primary rat microglial cells; test: qPCR of IL1-beta mRNA in primary microglia; assay type: cell-based; conditions: 100 ng/ml, complete media, 18 hours, control gene gamma-actin
# Description: (§5) Following 24 hours, cells were then mixed and aliquoted in to 96 wells at 7,000-20,000 cells per well in fresh media, either complete media (microglia) or minimal media (100 mL Neurobasal Media (#12348-017, Life Tech) supplemented with 1 mL N2 supplement (#17502-048, Life Tech) and 0.5 mM GlutaMax (#35050-061, Life Tech). Compounds to be tested were then added at the indicated concentrations and cells harvested 18 hours later by centrifugation at 2000×g, 5 minutes at 4° C. mRNA was isolated from the cells by use of the Purelink microscale RNA extraction kit (Catalog #12183016, Life Technologies) kit and the mRNA resuspended in 12-22 μl of RNase-free water according to the manufacturer's instructions. cDNA was prepared by use of the Superscript VILO kit (Catalog #11755050, Life Technologies) according to the manufacturer's instructions. The cDNA was eluted in a final volume of 20 μl RNase-free water and 4 μl was used for each qPCR reaction. For the real-time qPCR reactions, primers and reagents were supplied by Life Technologies and used according to the manufacturer's instructions. The detection molecule was the TaqMan probe with FAM dye label on 5′ end that binds to non-labeled primer pairs. The qPCR machine was a model 7500 Fast Real Time machine from ABI and used according to the manufacturer's instructions. 4 μl of the cDNA reaction was used for each qPCR reactions in a final volume of 20 μl. […] mRNA levels were quantitated by measuring the Cycle threshold (Ct) for each qPCR reaction using the standard algorithm supplied with the ABI 7500 Fast qPCR machine without modification. The Ct is defined as the number of cycles required for the fluorescent signal to cross the threshold (e.g. exceeds background level). […] The Cycle threshold is abbreviated Ct. The change in Ct equals [Ct (minus test agent)−Ct (plus test agent)]. Changes in Ct of the test genes xCT and IL1-beta are normalized by subtracting the change in Ct of the control gene, either gamma-actin or Hypoxanthine-guanine phosphoribosyl transferase (HPRT). […] Using the methods described in Example 11, various agents reported to cause activation of neuroinflammatory cells and/or known to cause or reflect damage to neurons, axons and/or oligodendrocytes were tested for their effect on xCT levels in primary rat microglia.
# [7] = tested on: xCT mRNA in primary rat microglial cells; test: qPCR of xCT mRNA in primary microglia; assay type: cell-based; conditions: 100 ng/ml, complete media, 18 hours, control gene gamma-actin
# Description: as §5
# [8] = published results in the SOD1 mouse model
molecule,measurement,setting,value
"O=C(O)c1cc(/N=N/c2ccc(S(=O)(=O)Nc3ccccn3)cc2)ccc1O [Amorphous sulfasalazine, sulfasalazine]",Cmax GB,[1],154 µg/mL
same,AUC,[1],"30,300 min * ug/mL"
same,Cmax IB,[1],372 µg/mL
CC(C)Cc1ccc(C(C)C(=O)O)cc1 (centres unmarked) [ibuprofen],decreased lifespan after onset of neurological disease,[2]; [8],10%
TNF-alpha,"xCT, Change in Ct normalized to control gene",[3],1.376
same,"xCT, Fold change normalized",[3],2.60
same,"xCT, Percent change normalized",[3],260%
same,Calculated glutamate levels,[4]; 30 minutes in minimal media,2.88 µM
same,Fluorescence units,[4]; 30 minutes in minimal media,13398
same,Calculated glutamate levels,[4]; 120 minutes in minimal media,9.05 µM
same,Fluorescence units,[4]; 120 minutes in minimal media,34307
same,Calculated glutamate levels,[4]; 240 minutes in minimal media,13.82 µM
same,Fluorescence units,[4]; 240 minutes in minimal media,50468
same,"Lcn-2, Percent change normalized",[5],244%
same,"IL1-beta, Percent change normalized",[6],"3,000%"
same,"xCT, Change in Ct normalized to control gene",[7],3.214
same,"xCT, Fold (absolute) change normalized",[7],9.3
same,"xCT, Percent change normalized",[7],930%
Nc1nc2ccc(OC(F)(F)F)cc2s1 [riluzole],increased lifespan after onset of neurological disease,[2]; [8],1%
same,increased absolute lifespan,"[2]; same SOD1 model under similar conditions, Lincecum et al.",1.6%
"O=C(O)c1cc(/N=N/c2ccc(S(=O)(=O)Nc3ccccn3)cc2)ccc1O [Crystalline sulfasalazine, sulfasalazine]",Cmax GB,[1],15 µg/mL
same,AUC,[1],"22,200 min * ug/mL"
same,Cmax IB,[1],282 µg/mL
